# Reference: patent US20250034170A1, “SMALL MOLECULE MODULATORS OF GLUCOCEREBROSIDASE ACTIVITY AND USES THEREOF” (Vanqua Bio, Inc., priority 2021, published 2025)
# Target: T1, GCase (Homo sapiens, UniProt P04062)
# T1 construct: endogenous in cells; host or cells: HeLa cells
# T1 sequence (P04062 40-536): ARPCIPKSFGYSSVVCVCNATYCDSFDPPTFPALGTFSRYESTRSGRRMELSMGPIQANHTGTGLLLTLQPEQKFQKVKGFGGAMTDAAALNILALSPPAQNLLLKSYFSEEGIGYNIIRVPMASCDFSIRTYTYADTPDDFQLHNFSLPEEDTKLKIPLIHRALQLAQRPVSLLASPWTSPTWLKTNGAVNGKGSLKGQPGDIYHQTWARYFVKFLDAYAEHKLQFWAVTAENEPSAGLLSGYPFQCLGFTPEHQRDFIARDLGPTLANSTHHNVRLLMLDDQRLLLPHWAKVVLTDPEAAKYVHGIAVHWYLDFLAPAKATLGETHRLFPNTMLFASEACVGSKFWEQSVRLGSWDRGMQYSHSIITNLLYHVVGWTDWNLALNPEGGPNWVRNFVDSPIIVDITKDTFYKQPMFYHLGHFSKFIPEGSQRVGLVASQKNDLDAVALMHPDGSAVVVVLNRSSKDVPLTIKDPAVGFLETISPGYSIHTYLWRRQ
# Assay: activation of GCase in a live cell PFB assay in HELA cells
# Type: cell-based
# Conditions: EC50 given as range classes
# Experimental: Exemplary compounds were evaluated for activation of GCase in a live cell PFB assay in HELA cells (essentially as described in Ysselstein et al., “LRRK2 kinase activity regulates lysosomal glucocerebrosidase in neurons derived from Parkinson's disease patients” Nature Communications (2019) 10:5570). […] EC50 ranges: A: <10 μM; B: >10-50 μM; C: >50-100 μM; D: >100 μM.
row,Structure (SMILES),EC50
1,FC(F)Cn1ncc2ncc(N3CCC4(CCCN(c5cccc(C(F)(F)F)n5)C4)CC3)nc21 [Cmpd 216],10 to 50 µM
2,O=C(c1ccccc1Cl)N1CC2(CCN(c3cnc4cnn(CC(F)F)c4n3)C2)C1 [Cmpd 383],< 10 µM
3,Cc1nc(N2CC3(CCN(c4ncc5c(C)nn(CC(F)(F)F)c5n4)CC3)C2)cc(C(F)(F)F)n1 [Cmpd 618],10 to 50 µM
4,Cc1ncc(N2CC3(CCN(c4cnc5c(C)nn(CC(F)(F)F)c5n4)C3)C2)c(C(F)(F)F)n1 [Cmpd 606],50 to 100 µM
5,O=C1CC2(CCN(c3cnc4cnn(CC(F)F)c4n3)C2)CCN1c1ccc(C(F)(F)F)nc1 (stereo not shown) [Cmpd 789],10 to 50 µM
6,Cc1nc(N2CC3(CCN(c4cc5c(cn4)cnn5CC(F)F)CC3)C2)cc(C(F)(F)F)n1 [Cmpd 632],< 10 µM
7,O=C1CC2(CCN(c3cnc4cnn(CC(F)F)c4n3)C2)CCN1c1cncc(C(F)(F)F)c1 (stereo not shown) [Cmpd 795],< 10 µM
8,Cc1cc(N2CC3(CCN(c4cnc5cnn(CC(F)F)c5n4)C3)C2)nc(C(F)(F)F)n1 [Cmpd 404],< 10 µM
9,Cn1c(N2CCC3(CN(c4ccnc(C(F)(F)F)c4)C3)C2)nc2c(cnn2CC(F)(F)F)c1=O [Cmpd 1017],10 to 50 µM
10,Cc1ccc(N2CC3(CCN(c4cnc5cnn(CC(F)F)c5n4)CC3)CC2=O)c(OC(F)(F)F)n1 [Cmpd 782],< 10 µM
11,O=C1N(c2ccc(C(F)(F)F)cn2)CCC12C1CCC2CN(c2cnc3cnn(CC(F)F)c3n2)C1 (stereo not shown) [Cmpd 800],< 10 µM

# Same assay, conditions: activation of GCase, EC50 ranges
row,Structure (SMILES),EC50
1,"Cc1nn(CC(F)F)c2nc(N3CCC4(CCN(c5cc(C(F)F)ccn5)CC4)C3)cnc12 [Compound 163, 2-[1-(2,2-difluoroethyl)-3-methyl-1H-pyrazolo[3,4-b]pyrazin-6-yl]-8-[4-(difluoromethyl)pyridin-2-yl]-2,8-diazaspiro[4.5]decane]",< 10 µM
2,FC(F)Cn1ncc2ncc(N3CCC4(CN(c5cnc(C(F)F)nc5)C4)C3)nc21 [Cmpd 958],< 10 µM
3,FC(F)Cn1ncc2ncc(N3CCC4(CC3)CC(Oc3ccnc(C(F)(F)F)c3)C4)nc21 [Cmpd 703],< 10 µM
4,"FC(F)Cn1ncc2ncc(N3CCC4(CCN(c5cc(C(F)(F)F)ccn5)CC4)C3)nc21 [Compound 16, 2-[1-(2,2-difluoroethyl)-1H-pyrazolo[3,4-b]pyrazin-6-yl]-8-[4-(trifluoromethyl)pyridin-2-yl]-2,8-diazaspiro[4.5]decane]",10 to 50 µM
5,FC(F)Cn1ncc2ncc(N3CCC4(CN(c5ccc(OC(F)F)nc5)C4)C3)nc21 [Cmpd 450],10 to 50 µM
6,FC(F)Cn1ncc2ncc(N3CC[C@@]4(CCN(c5cnc(C(F)(F)F)nc5)C4)C3)nc21 [Cmpd 1132],10 to 50 µM
7,O=C1N(c2cnc3cnn(CC(F)F)c3n2)CCC12CCN(c1ccc(C(F)(F)F)cn1)C2 (stereo not shown) [Cmpd 520],10 to 50 µM
8,"O=C(Cc1csc(-c2ccccc2)n1)N1CCCC2(C1)CN(c1ccccc1)C2 [Compound 57, 2-(2-phenyl-1,3-thiazol-4-yl)-1-{2-phenyl-2,6-diazaspiro[3.5]nonan-6-yl}ethan-1-one]",10 to 50 µM
9,"COCCN1CCC2(CCN(c3cnc4cnn(CC(F)F)c4n3)CC2)C1=O [Compound 116, 8-[1-(2,2-difluoroethyl)-1H-pyrazolo[3,4-b]pyrazin-6-yl]-2-(2-methoxyethyl)-2,8-diazaspiro[4.5]decan-1-one]",10 to 50 µM
10,O=C1CC2(CCN(c3cnc4cnn(CC(F)F)c4n3)CC2)CN1c1ccncc1C(F)(F)F [Cmpd 684],< 10 µM
11,CC(c1cncc(Cl)c1)N1CC2(CCN(c3cnc4cnn(CC(F)F)c4n3)CC2)CC1=O (stereo not shown) [Cmpd 968],< 10 µM
12,O=C1N(c2ccc(C(F)(F)F)nc2)C(=O)C2(CCN(c3cnc4cnn(CC(F)F)c4n3)CC2)N1CCC1CC1 [Cmpd 880],< 10 µM
13,Fc1ncc(N2CCC3(CCN(c4cnc5cnn(CC(F)F)c5n4)CC3)C2)nc1C(F)(F)F [Cmpd 767],< 10 µM
14,CC(C(F)F)n1ncc2ncc(N3CCC4(CCN(c5cc(C(F)(F)F)ccn5)C4)CC3)nc21 (stereo not shown) [Cmpd 752],< 10 µM
15,FC(F)Cn1ncc2ncc(N3CCC4(C3)CN(c3nnc(C(F)(F)F)s3)C4)nc21 [Cmpd 1046],10 to 50 µM
16,O=C1N(c2cc(C(F)(F)F)ccn2)CCC12CCN(c1cncc(N3CCCC3)n1)CC2 [Cmpd 245],10 to 50 µM
17,O=C1CC2(CCN(c3cnc4cnn(C5COC5)c4n3)CC2)CN1c1ccc(C(F)(F)F)cn1 [Cmpd 857],< 10 µM
18,O=C1N(c2ccc(C(F)(F)F)cn2)CCC12CCN(c1cnc3cnn(CC(F)F)c3n1)CC2 [Cmpd 678],10 to 50 µM
19,"FC(F)Cn1ncc2ncc(N3CC4(CCN(c5cccc(C(F)(F)F)n5)CC4)C3)nc21 [Compound 125, 2-[1-(2,2-difluoroethyl)-1H-pyrazolo[3,4-b]pyrazin-6-yl]-7-[6-(trifluoromethyl)pyridin-2-yl]-2,7-diazaspiro[3.5]nonane]",10 to 50 µM
20,"FC(F)Cn1ncc2ncc(N3CCC4(CN(c5ccc(C(F)(F)F)cn5)CCO4)C3)nc21 (stereo not shown) [Compound 175, 2-[1-(2,2-difluoroethyl)-1H-pyrazolo[3,4-b]pyrazin-6-yl]-9-[5-(trifluoromethyl)pyridin-2-yl]-6-oxa-2,9-diazaspiro[4.5]decane]",50 to 100 µM
21,FC(F)Cn1ncc2ncc(N3CCC4(CCC(Oc5ncccc5C(F)(F)F)C4)CC3)nc21 (stereo not shown) [Cmpd 689],10 to 50 µM
22,CCOc1nn(CC(F)F)c2nc(N3CCC4(CC3)CC(=O)N(c3ccnc(C(F)(F)F)c3)C4)cnc12 [Cmpd 941],< 10 µM

row,Structure (SMILES),EC50
1,Cc1nn(C2COC2)c2nc(N3CCC4(CCN(c5ccnc(C(F)(F)F)c5)C4)C3)cnc12 (stereo not shown) [Cmpd 476],50 to 100 µM
2,FC(F)Cn1ncc2ncc(N3CCC4(CN(c5ccc(OC(F)(F)F)nc5)C4)C3)nc21 [Cmpd 451],10 to 50 µM
3,FC(F)(F)c1ncc(N2CCC3(CCN(c4cnc5cnn(C6COC6)c5n4)C3)C2)cn1 (stereo not shown) [Cmpd 533],< 10 µM
4,"Cn1c(-c2ccccc2)c(C(=O)N2CCCC3(CC(Oc4cccnc4C(F)(F)F)C3)C2)c2nccnc21 (stereo not shown) [Compound 108, 6-{5-methyl-6-phenyl-5H-pyrrolo[2,3-b]pyrazine-7-carbonyl}-2-{[2-(trifluoromethyl)pyridin-3-yl]oxy}-6-azaspiro[3.5]nonane]",10 to 50 µM
5,O=C1CC2(CCN(c3cnc4cnn(CC(F)F)c4n3)CC2)CN1c1ccnc(C(F)(F)F)c1 [Cmpd 683],< 10 µM
6,O=C1CC2(CCN(c3cnc4cnn(CC(F)F)c4n3)CC2)C(CC(F)F)N1c1ccnc(C(F)(F)F)c1 (stereo not shown) [Cmpd 955],< 10 µM
7,"FC(F)Cn1ncc2ncc(N3CC4(CCN(c5cc(C(F)(F)F)ccn5)CC4)C3)nc21 [Compound 3, 2-[1-(2,2-difluoroethyl)-1H-pyrazolo[3,4-b]pyrazin-6-yl]-7-[4-(trifluoromethyl)pyridin-2-yl]-2,7-diazaspiro[3.5]nonane]",< 10 µM
8,FC(F)Cn1ncc2ncc(N3CCC4(CCN(c5cnc(C(F)(F)F)nc5)C4)CC3)nc21 [Cmpd 736],10 to 50 µM
9,O=C1N(c2ccc(C(F)(F)F)nc2)C(=O)C2(CCN(c3cnc4cnn(CC(F)F)c4n3)CC2)N1CCOC(F)(F)F [Cmpd 877],< 10 µM
10,"FC(F)(F)c1ccc(N2CCCC3(C2)CN(c2cncc(-c4nncs4)n2)C3)cn1 [Compound 138, 2-[6-(1,3,4-thiadiazol-2-yl)pyrazin-2-yl]-6-[6-(trifluoromethyl)pyridin-3-yl]-2,6-diazaspiro[3.5]nonane]",10 to 50 µM
11,Cc1cc(N2CC3(CCN(c4cnc5cnn(CC(F)F)c5n4)CC3)CC2=O)nc(C(F)(F)F)n1 [Cmpd 529],< 10 µM
12,O=C1N(c2nc(C(F)(F)F)co2)CCC12CCN(c1cnc3cnn(CC(F)F)c3n1)CC2 [Cmpd 838],10 to 50 µM
13,Cc1ncc(N2CC3(CCN(c4cnc5cnn([C@@H]6CCOC6)c5n4)C3)C2)c(C(F)(F)F)n1 [Cmpd 653],> 100 µM
14,"FC(F)Cn1ncc2ncc(N3CC4(CC(COc5cc(C(F)(F)F)ccn5)C4)C3)nc21 [Compound 132, 2-[1-(2,2-difluoroethyl)-1H-pyrazolo[3,4-b]pyrazin-6-yl]-6-({[4-(trifluoromethyl)pyridin-2-yl]oxy}methyl)-2-azaspiro[3.3]heptane]",10 to 50 µM
15,FC(F)(F)c1cc(N2CCC3(CCN(c4ncc5cnn(C6COC6)c5n4)C3)C2)ccn1 (stereo not shown) [Cmpd 474],> 100 µM
16,O=C1N(c2cncc(C(F)(F)F)c2)CCC12CCN(c1cnc3cnn(CC(F)F)c3n1)CC2 [Cmpd 674],< 10 µM
17,"FC(F)Cn1ncc2ncc(N3CCC4(CC3)CN(c3cccc(C(F)(F)F)n3)C4)nc21 [Compound 77, 7-[1-(2,2-difluoroethyl)-1H-pyrazolo[3,4-b]pyrazin-6-yl]-2-[6-(trifluoromethyl)pyridin-2-yl]-2,7-diazaspiro[3.5]nonane]",< 10 µM
18,O=C1CC2(CCN1c1ccc(C(F)(F)F)nc1)CN(c1cnc3cnn(CC(F)F)c3n1)C2 [Cmpd 910],10 to 50 µM
19,FC(F)(F)Cn1ncc2ncc(N3CCC4(CCN(c5ccnc(C(F)(F)F)c5)C4)C3)nc21 (stereo not shown) [Cmpd 473],10 to 50 µM
20,FC(F)(F)c1cc(N2CCC3(C2)CN(c2cnc4cnn(C5COC5)c4n2)C3)ccn1 [Cmpd 344],< 10 µM
21,CCN1C(=O)N(c2ccc(C(F)(F)F)nc2)C(=O)C12CCN(c1cnc3c(C)nn(CC(F)F)c3n1)CC2 [Cmpd 871],10 to 50 µM
22,FC(F)Cn1ncc2ncc(N3CCC4(C3)CN(c3ncc(C(F)(F)F)cn3)C4)nc21 [Cmpd 319],10 to 50 µM
